ChEMBL document CHEMBL3991601, “The target landscape of clinical kinase drugs” (Science, 2017)
Activity calls are given as the source filed them. Rule as the data show it, for most assays here: actives have a measured Kd and inactives only a lower limit.

Tests used:
[1] = target: Calcium/calmodulin-dependent protein kinase type II subunit delta (Homo sapiens, UniProt Q13557)
[2] = target: Calcium/calmodulin-dependent protein kinase kinase 2 (Homo sapiens, UniProt Q96RR4)
Ephrin type-B receptor 3 = target: T1, Ephrin type-B receptor 3 (Homo sapiens, UniProt P54753)
T1 sequence (P54753 whole entry): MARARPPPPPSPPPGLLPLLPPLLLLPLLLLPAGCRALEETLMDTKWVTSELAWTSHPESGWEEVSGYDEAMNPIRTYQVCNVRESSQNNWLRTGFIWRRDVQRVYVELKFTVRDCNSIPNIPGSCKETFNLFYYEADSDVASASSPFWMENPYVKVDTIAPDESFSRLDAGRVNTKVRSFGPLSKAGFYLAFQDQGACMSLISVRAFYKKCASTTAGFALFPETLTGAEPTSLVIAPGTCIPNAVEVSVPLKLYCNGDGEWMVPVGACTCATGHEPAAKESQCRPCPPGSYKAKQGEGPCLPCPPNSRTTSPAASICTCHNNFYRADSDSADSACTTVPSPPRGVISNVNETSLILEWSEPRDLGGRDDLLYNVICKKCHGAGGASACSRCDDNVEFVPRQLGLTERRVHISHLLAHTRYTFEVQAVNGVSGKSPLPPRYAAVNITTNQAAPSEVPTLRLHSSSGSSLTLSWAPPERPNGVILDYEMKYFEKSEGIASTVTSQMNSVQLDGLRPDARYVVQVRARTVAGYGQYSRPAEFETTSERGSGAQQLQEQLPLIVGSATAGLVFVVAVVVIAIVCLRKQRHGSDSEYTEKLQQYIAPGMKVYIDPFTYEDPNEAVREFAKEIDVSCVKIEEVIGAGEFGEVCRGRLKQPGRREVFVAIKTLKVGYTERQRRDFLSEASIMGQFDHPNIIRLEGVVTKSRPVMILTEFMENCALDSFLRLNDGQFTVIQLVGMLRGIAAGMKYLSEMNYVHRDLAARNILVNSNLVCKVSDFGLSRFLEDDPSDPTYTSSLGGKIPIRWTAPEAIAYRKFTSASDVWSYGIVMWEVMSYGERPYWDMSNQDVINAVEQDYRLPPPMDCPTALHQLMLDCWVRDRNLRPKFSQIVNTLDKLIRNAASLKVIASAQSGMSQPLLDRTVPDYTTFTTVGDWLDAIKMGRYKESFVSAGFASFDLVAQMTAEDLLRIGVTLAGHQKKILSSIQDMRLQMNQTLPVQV

[3] = target: T2, Cyclin-G-associated kinase (Homo sapiens, UniProt O14976)
T2 sequence (O14976 whole entry): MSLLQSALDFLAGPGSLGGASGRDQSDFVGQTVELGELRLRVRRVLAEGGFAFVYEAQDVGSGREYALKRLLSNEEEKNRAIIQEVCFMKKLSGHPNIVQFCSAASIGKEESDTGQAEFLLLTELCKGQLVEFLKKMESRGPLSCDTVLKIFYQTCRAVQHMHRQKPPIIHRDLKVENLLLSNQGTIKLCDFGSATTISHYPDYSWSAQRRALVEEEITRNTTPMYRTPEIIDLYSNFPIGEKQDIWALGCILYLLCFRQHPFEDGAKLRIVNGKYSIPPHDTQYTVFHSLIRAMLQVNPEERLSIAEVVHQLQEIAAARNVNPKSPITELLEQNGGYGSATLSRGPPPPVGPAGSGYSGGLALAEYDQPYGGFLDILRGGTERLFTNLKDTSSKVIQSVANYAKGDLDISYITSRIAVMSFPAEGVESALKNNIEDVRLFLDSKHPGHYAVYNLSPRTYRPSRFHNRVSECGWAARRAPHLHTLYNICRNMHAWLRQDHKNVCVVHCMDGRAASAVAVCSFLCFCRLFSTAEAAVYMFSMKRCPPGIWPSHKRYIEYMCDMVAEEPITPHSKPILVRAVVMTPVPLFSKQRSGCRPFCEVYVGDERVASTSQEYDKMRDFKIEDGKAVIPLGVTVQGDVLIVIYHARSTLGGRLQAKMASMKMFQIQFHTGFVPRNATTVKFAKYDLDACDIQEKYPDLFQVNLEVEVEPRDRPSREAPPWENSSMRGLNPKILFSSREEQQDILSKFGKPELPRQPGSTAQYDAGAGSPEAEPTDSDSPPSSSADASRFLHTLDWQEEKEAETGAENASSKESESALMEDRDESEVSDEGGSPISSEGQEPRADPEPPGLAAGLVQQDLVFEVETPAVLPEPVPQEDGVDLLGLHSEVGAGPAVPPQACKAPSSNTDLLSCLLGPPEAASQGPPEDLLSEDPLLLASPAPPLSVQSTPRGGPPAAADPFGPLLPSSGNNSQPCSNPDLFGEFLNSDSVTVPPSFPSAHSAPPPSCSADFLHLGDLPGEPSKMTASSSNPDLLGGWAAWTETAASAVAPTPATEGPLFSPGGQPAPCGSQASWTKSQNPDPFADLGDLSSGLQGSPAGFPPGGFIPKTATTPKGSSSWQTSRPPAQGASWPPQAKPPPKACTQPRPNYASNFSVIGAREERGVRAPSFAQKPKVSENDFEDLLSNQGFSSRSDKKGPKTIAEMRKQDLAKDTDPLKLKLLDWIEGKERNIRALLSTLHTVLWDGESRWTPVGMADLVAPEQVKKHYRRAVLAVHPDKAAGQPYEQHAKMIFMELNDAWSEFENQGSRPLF

LIM domain kinase 2 = LIM domain kinase 2 (Homo sapiens, UniProt P53671)
[4] = target: Maternal embryonic leucine zipper kinase (Homo sapiens, UniProt Q14680)
[5] = target: Tyrosine-protein kinase Yes (Homo sapiens, UniProt P07947)
Also: in the data inactive means no Kd found up to 30 µM.

Sequence of Maternal embryonic leucine zipper kinase (Q14680 whole entry): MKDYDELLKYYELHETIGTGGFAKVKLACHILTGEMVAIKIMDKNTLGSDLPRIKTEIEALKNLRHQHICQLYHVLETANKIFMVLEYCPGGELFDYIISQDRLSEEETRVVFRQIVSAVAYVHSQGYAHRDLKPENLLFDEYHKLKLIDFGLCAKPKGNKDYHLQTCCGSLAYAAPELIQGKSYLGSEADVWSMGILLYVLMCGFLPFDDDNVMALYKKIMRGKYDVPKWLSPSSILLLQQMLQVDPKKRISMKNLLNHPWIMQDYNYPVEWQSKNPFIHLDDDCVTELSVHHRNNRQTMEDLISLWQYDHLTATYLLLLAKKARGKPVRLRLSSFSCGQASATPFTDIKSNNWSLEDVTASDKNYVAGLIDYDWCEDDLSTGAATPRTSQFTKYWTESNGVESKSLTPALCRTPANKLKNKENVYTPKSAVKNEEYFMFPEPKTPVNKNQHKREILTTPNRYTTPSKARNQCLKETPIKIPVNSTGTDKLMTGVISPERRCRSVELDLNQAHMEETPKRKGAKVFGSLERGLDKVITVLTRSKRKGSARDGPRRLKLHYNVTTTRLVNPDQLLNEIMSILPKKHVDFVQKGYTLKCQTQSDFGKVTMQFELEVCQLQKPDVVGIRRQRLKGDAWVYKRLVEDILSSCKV
Sequence of Tyrosine-protein kinase Yes (P07947 whole entry): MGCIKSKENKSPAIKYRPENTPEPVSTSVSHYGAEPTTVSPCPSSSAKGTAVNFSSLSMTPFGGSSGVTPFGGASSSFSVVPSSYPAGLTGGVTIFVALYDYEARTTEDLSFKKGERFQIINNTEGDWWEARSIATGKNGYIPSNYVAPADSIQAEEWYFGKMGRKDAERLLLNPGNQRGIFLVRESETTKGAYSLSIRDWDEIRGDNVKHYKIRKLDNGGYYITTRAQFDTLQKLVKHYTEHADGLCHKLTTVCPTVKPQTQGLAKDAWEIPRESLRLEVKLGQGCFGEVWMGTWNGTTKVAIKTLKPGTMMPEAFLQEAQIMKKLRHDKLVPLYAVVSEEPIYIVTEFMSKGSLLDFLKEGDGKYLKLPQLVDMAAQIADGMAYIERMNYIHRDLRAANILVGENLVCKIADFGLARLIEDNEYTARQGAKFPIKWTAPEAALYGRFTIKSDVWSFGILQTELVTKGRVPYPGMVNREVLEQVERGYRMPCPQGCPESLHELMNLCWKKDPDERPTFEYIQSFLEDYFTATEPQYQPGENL
Sequence of LIM domain kinase 2 (P53671 whole entry, the tested form may be a part): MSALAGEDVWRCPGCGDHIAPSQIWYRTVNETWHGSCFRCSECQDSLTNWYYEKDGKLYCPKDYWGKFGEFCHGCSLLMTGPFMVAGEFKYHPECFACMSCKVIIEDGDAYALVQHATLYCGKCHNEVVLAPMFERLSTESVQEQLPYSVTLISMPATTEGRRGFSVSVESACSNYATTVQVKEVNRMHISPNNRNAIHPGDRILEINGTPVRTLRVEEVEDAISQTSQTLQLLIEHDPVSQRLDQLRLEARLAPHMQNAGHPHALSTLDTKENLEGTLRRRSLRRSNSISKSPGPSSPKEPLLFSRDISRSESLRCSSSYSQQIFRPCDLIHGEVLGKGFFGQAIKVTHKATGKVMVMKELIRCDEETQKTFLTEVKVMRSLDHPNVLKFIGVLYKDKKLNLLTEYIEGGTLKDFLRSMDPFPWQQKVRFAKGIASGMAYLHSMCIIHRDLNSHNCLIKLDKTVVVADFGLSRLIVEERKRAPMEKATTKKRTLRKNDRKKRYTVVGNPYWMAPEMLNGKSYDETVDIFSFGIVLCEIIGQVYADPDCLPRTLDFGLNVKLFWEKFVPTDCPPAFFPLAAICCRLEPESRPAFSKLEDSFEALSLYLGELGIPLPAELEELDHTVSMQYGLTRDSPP
Sequence of Calcium/calmodulin-dependent protein kinase type II subunit delta (Q13557 whole entry): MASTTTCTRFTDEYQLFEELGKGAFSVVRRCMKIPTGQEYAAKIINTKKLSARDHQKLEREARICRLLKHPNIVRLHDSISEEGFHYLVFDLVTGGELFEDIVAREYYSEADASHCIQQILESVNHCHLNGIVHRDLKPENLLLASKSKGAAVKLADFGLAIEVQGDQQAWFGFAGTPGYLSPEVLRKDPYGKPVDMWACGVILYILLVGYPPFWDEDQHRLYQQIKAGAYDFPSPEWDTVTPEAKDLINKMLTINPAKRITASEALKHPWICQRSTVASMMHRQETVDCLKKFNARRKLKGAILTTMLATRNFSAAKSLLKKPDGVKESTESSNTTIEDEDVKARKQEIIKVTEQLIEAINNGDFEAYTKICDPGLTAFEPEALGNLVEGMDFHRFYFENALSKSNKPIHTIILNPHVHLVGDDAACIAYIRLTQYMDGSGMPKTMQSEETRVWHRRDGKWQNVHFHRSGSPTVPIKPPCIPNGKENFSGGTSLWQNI
Sequence of Calcium/calmodulin-dependent protein kinase kinase 2 (Q96RR4 whole entry): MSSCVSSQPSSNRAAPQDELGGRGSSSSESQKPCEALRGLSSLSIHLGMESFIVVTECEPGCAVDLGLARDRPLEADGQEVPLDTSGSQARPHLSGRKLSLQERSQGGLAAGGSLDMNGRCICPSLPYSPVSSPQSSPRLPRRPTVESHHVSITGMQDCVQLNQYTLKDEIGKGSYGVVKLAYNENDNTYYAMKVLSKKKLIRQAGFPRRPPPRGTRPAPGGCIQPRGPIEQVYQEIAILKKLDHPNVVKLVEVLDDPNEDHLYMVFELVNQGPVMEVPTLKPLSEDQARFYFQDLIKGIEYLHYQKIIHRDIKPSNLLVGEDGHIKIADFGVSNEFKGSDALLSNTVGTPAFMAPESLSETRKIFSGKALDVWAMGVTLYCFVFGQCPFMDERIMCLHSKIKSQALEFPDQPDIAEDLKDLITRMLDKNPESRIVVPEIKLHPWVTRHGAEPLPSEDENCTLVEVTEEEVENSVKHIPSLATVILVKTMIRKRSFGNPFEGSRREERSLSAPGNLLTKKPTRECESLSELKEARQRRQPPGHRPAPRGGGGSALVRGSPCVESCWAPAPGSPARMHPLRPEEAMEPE

Kd [4] | SMILES | Kd [1] | Kd [2] | Kd (Ephrin type-B receptor 3) | Kd [3] | Kd (LIM domain kinase 2) | Kd [5]
> 30 µM (inactive) | NC(=O)c1ccc(N(C(N)=O)c2c(F)cccc2F)nc1-c1ccc(F)cc1F [VX-702] | > 30 µM (inactive) | > 30 µM (inactive) | > 30 µM (inactive) | > 30 µM (inactive) | > 30 µM (inactive) | > 30 µM (inactive)
– | CN(c1ncccc1CNc1nc(Nc2ccc3c(c2)CC(=O)N3)ncc1C(F)(F)F)S(C)(=O)=O [PF-00562271] | – | – | > 30 µM (inactive) | > 30 µM (inactive) | > 30 µM (inactive) | > 30 µM (inactive)
> 30 µM (inactive) | Cc1cc(Nc2nc(N[C@@H](C)c3ncc(F)cn3)ncc2Cl)n[nH]1 [AZD-1480] | > 30 µM (inactive) | > 30 µM (inactive) | > 30 µM (inactive) | > 30 µM (inactive) | > 30 µM (inactive) | > 30 µM (inactive)
– | C[C@]1(O)C[C@@H](c2nc(-c3ccc4ccc(-c5ccccc5)nc4c3)c3c(N)nccn32)C1 [LINSITINIB] | – | > 30 µM (inactive) | > 30 µM (inactive) | > 30 µM (inactive) | > 30 µM (inactive) | > 30 µM (inactive)
> 30 µM (inactive) | COc1cc2ncnc(Nc3ccc(O)cc3)c2cc1OC [WHI-P131] | > 30 µM (inactive) | > 30 µM (inactive) | > 30 µM (inactive) | 28.7 µM (active) | > 30 µM (inactive) | > 30 µM (inactive)
> 30 µM (inactive) | CNC(=O)c1cc(COc2nnc(Nc3ccc(Cl)cc3)c3ccoc23)ccn1 [TELATINIB] | > 30 µM (inactive) | > 30 µM (inactive) | > 30 µM (inactive) | > 30 µM (inactive) | > 30 µM (inactive) | > 30 µM (inactive)
> 30 µM (inactive) | Cn1c(=O)n(-c2ccc(C(C)(C)C#N)cc2)c2c3cc(-c4cnc5ccccc5c4)ccc3ncc21 [DACTOLISIB] | > 30 µM (inactive) | > 30 µM (inactive) | > 30 µM (inactive) | > 30 µM (inactive) | > 30 µM (inactive) | > 30 µM (inactive)
> 30 µM (inactive) | COc1cccc(Nc2ncnn3ccc(CN4CC[C@@H](N)[C@H](O)C4)c23)c1 [BMS-690514] | 0.703 µM (active) | > 30 µM (inactive) | – | 0.0003 µM (active) | > 30 µM (inactive) | 1.03 µM (active)
– | CC(C)CC(=O)Nc1[nH]nc2c1CN(C(=O)C1CCN(C)CC1)C2(C)C [PHA-793887] | > 30 µM (inactive) | > 30 µM (inactive) | > 30 µM (inactive) | > 30 µM (inactive) | > 30 µM (inactive) | > 30 µM (inactive)
– | CNC(=O)c1ccc(Nc2ncc(C(F)(F)F)c(NCc3nccnc3N(C)S(C)(=O)=O)n2)cc1 [DEFACTINIB] | > 30 µM (inactive) | > 30 µM (inactive) | > 30 µM (inactive) | > 30 µM (inactive) | > 30 µM (inactive) | > 30 µM (inactive)
> 30 µM (inactive) | Cc1cc(C(=O)Nc2cc(Oc3ccc4nc(NC(=O)C5CC5)cn4n3)ccc2C)n(C)n1 [TAK-593] | > 30 µM (inactive) | > 30 µM (inactive) | > 30 µM (inactive) | > 30 µM (inactive) | > 30 µM (inactive) | –
– | N#CCNC(=O)c1ccc(-c2ccnc(Nc3ccc(N4CCOCC4)cc3)n2)cc1 [MOMELOTINIB] | – | > 30 µM (inactive) | > 30 µM (inactive) | 0.822 µM (active) | > 30 µM (inactive) | > 30 µM (inactive)
> 30 µM (inactive) | CC(C)(O)CC(=O)NCCn1ccc2ncnc(Nc3ccc(Oc4cccc(C(F)(F)F)c4)c(Cl)c3)c21 [TAK-285] | > 30 µM (inactive) | > 30 µM (inactive) | > 30 µM (inactive) | > 30 µM (inactive) | > 30 µM (inactive) | –
– | CCN(CCCOc1ccc2c(Nc3cc(CC(=O)Nc4cccc(F)c4)n[nH]3)ncnc2c1)CCOP(=O)(O)O [BARASERTIB] | > 30 µM (inactive) | – | > 30 µM (inactive) | > 30 µM (inactive) | > 30 µM (inactive) | > 30 µM (inactive)

SMILES | Kd [4] | Kd [1] | Kd [2] | Kd (Ephrin type-B receptor 3) | Kd [3] | Kd (LIM domain kinase 2) | Kd [5]
Cc1c(NC(=O)OC[C@@H]2COCCN2)cn2ncnc(Nc3ccc4c(cnn4Cc4cccc(F)c4)c3)c12 [AC-480] | > 30 µM (inactive) | > 30 µM (inactive) | > 30 µM (inactive) | > 30 µM (inactive) | > 30 µM (inactive) | > 30 µM (inactive) | > 30 µM (inactive)
Cn1cc(-c2[nH]c3cc(NC(=O)[C@H](N)C4CCCCC4)cc4c3c2C=NNC4=O)cn1 | 45.7 µM (active) | > 30 µM (inactive) | > 30 µM (inactive) | > 30 µM (inactive) | 0.023 µM (active) | 0.205 µM (active) | 0.623 µM (active)
NC[C@@](O)(c1ccc(Cl)cc1)c1ccc(-c2cn[nH]c2)cc1 [AT-13148] | > 30 µM (inactive) | > 30 µM (inactive) | > 30 µM (inactive) | > 30 µM (inactive) | > 30 µM (inactive) | > 30 µM (inactive) | > 30 µM (inactive)
COc1cc(F)c(F)c(Nc2ccc(I)cc2F)c1NS(=O)(=O)C1(C[C@H](O)CO)CC1 [REFAMETINIB] | > 30 µM (inactive) | > 30 µM (inactive) | > 30 µM (inactive) | > 30 µM (inactive) | > 30 µM (inactive) | > 30 µM (inactive) | > 30 µM (inactive)
CN1CCN(c2nc(C3=C(c4c[nH]c5ccccc45)C(=O)NC3=O)c3ccccc3n2)CC1 [SOTRASTAURIN] | > 30 µM (inactive) | > 30 µM (inactive) | > 30 µM (inactive) | > 30 µM (inactive) | > 30 µM (inactive) | > 30 µM (inactive) | > 30 µM (inactive)
CC1(COc2ccc3c(c2)ncn3-c2ccc3cccc(N4CCC(N)CC4)c3n2)COC1 [CRENOLANIB] | 4.23 µM (active) | 0.821 µM (active) | 0.135 µM (active) | > 30 µM (inactive) | 2.41 µM (active) | > 30 µM (inactive) | > 30 µM (inactive)
CCc1nc(C(N)=O)c(Nc2ccc(N3CCC(N4CCN(C)CC4)CC3)c(OC)c2)nc1NC1CCOCC1 [GILTERITINIB] | > 30 µM (inactive) | 0.207 µM (active) | 2.65 µM (active) | > 30 µM (inactive) | 0.009 µM (active) | > 30 µM (inactive) | –
